This is an account of results in patent US20050080113A1, “Medicinal compositions” (priority 2001, published 2005).

A word on the melting point: it is the temperature, or range, at which the solid turns liquid.

SMILES strings stand for the structures.

In the case of `CSc1ccc(-c2nc(-c3cccc(C)c3)c(-c3ccnc(NCCc4ccccc4)c3)s2)cc1` [D 19-18, N-[4-[4-(3-methylphenyl)-2-(4-methylthiophenyl)-1,3-thiazol-5-yl]-2-pyridyl]-N-(2-phenylethyl)amine], the melting point lay within 137 to 139 °C.

`CSc1ccc(-c2nc(-c3cccc(C)c3)c(-c3ccnc(NCCCc4ccccc4)c3)s2)cc1` [D 19-19, N-[4-[4-(3-methylphenyl)-2-(4-methylthiophenyl)-1,3-thiazol-5-yl]-2-pyridyl]-N-(3-phenylpropyl)amine] had a melting point of 106 to 107 °C.

For `CSc1ccc(-c2nc(-c3cccc(C)c3)c(-c3ccnc(NCc4ccc5ccccc5c4)c3)s2)cc1` [D 19-20, N-[4 [4 (3 methylphenyl)-2 (4 methylthiophenyl)-1,3 thiazol-5 yl]-2 pyridyl]-N-(2-naphthylmethyl)amine], the melting point lay in the range of 144 to 145 °C.

Take `Cc1cccc(-c2nc(-c3ccc(S(C)(=O)=O)cc3)sc2-c2ccnc(NC(=O)c3cccs3)c2)c1` [D 21-3, N-[4 [4 (3 methylphenyl)-2-(4 methylsulfonylphenyl)-1,3 thiazol-5 yl]-2 pyridyl]-2-thiophenecarboxamide]: the melting point was in the range of 199 to 201 °C.

`Cc1cccc(-c2nc(-c3ccc(S(C)(=O)=O)cc3)sc2-c2ccnc(NC(=O)c3ccc4ccccc4c3)c2)c1` [D 21-4, N-[4 [4 (3 methylphenyl)-2-(4 methylsulfonylphenyl)-1,3 thiazol-5 yl]-2 pyridyl]-2-naphthamide] gave a melting point of 231 to 233 °C.

As to `Cc1cccc(-c2nc(-c3ccc(S(C)(=O)=O)cc3)sc2-c2ccnc(NCCCc3ccccc3)c2)c1` [D 21-6, N-[4-[4-(3-methylphenyl)-2-(4-methylsulfonylphenyl)-1,3-thiazol-5-yl]-2-pyridyl]-N-(3-phenylpropyl)amine], the melting point was in the range of 167 to 168 °C.

The compound `Cc1cccc(-c2nc(-c3ccc(S(C)(=O)=O)cc3)sc2-c2ccnc(NCc3ccc4ccccc4c3)c2)c1` [D 21-7, N-[4 [4 (3 methylphenyl)-2-(4 methylsulfonylphenyl)-1,3 thiazol-5 yl]-2 pyridyl]-N-(2-naphthylmethyl)amine] came in with a melting point of 167 to 168 °C.

For the compound `Cc1cccc(-c2nc(-c3ccc(S(C)(=O)=O)cc3)sc2-c2ccnc(N(C)CCc3ccccc3)c2)c1` [D 25-4, N-methyl-N-[4 [4 (3-methylphenyl)-2 (4 methylsulfonylphenyl)-1,3 thiazol-5 yl]-2 pyridyl]-N-(2 phenylethyl)amine], the melting point is 116 to 117 °C.

In turn, `Cc1cccc(-c2nc(-c3ccc(S(C)(=O)=O)cc3)sc2-c2ccnc(NCc3cccs3)c2)c1` [D 25-5, N-[4 [4 (3 methylphenyl)-2-(4 methylsulfonylphenyl)-1,3 thiazol-5 yl]-2 pyridyl]-N-(2-thienylmethyl)amine] registered a melting point of 107 to 109 °C.

In turn, `Cc1cccc(-c2nc(-c3ccc(S(C)(=O)=O)cc3)sc2-c2ccnc(SCc3ccccc3)c2)c1` [D 27, 5 (2 benzylthio-4 pyridyl)-4 (3-methylphenyl)-2 (4 methylsulfonylphenyl)-1,3 thiazole] yielded a melting point of 182 to 185 °C.

For `COc1ccc(-c2nc(N)sc2-c2ccnc(N)c2)cc1` [H 1, [5 (2 amino-4 pyridyl)-4 (4 methoxyphenyl)-1,3 thiazol-2-yl]amine], the melting point fell in the range of 251 to 254 °C.

As for `Nc1nc(-c2ccc(F)cc2)c(-c2ccnc(F)c2)s1` [H 7-3, [4 (4 fluorophenyl)-5 (2-fluoro-4 pyridyl)-1,3 thiazol-2 yl]amine], the melting point was in the range of 243 to 245 °C.

`Cc1cccc(-c2nc(N)sc2-c2ccnc(C)c2)c1` [H 7-4, [4-(3-methylphenyl)-5-(2-methyl-4-pyridyl)-1,3-thiazol-2-yl]amine]: the melting point is 205 to 206 °C.

The compound `Cc1cc(C)cc(-c2nc(N)sc2-c2ccnc(C)c2)c1` [H 7-5, [4 (3,5 dimethylphenyl)-5-(2 methyl-4 pyridyl)-1,3 thiazol-2 yl]amine] yielded a melting point of 219 to 220 °C.

For the compound `Cc1cccc(N2C=C(c3cc(C)nc(C)c3)SC2N)c1` (stereo not shown) [H 7-6, [5 (2,6 dimethyl-4-pyridyl)-3 (3 methylphenyl)-1,3 thiazol-2 yl]amine], the melting point was in the range of 214 to 216 °C.

`Cc1cc(C)cc(-c2nc(N)sc2-c2cc(C)nc(C)c2)c1` [H 7-7, [4 (3,5 dimethylphenyl)-5-(2,6 dimethyl-4 pyridyl)-1,3 thiazol-2 yl]amine]: the melting point lay within 256 to 258 °C.

For `Cc1cc(-c2sc(N)nc2-c2ccc(F)cc2)ccn1` [H 7-8, [4 (4 fluorophenyl)-5 (2-methyl-4 pyridyl)-1,3 thiazol-2 yl]amine], the melting point was 233 to 234 °C.

Compound `Cc1cccc(-c2nc(-c3ccccc3Cl)sc2-c2ccnc(C)c2)c1` [H 14-1, 2 (2 chlorophenyl)-4 (3-methylphenyl)-5 (2 methyl-4 pyridyl)-1,3 thiazole] showed a melting point of 83 to 84 °C.

`Cc1cccc(-c2nc(-c3ccc(Cl)cc3)sc2-c2ccnc(C)c2)c1` [H 14-2, 2 (4 chlorophenyl)-4 (3-methylphenyl)-5 (2 methyl-4 pyridyl)-1,3 thiazole]: the melting point fell in the range of 104 to 105 °C.

Turning to `Cc1cccc(-c2nc(-c3ccccc3F)sc2-c2ccnc(C)c2)c1` [H 14-3, 2 (2 fluorophenyl)-4 (3-methylphenyl)-5 (2 methyl-4 pyridyl)-1,3 thiazole], the melting point fell in the range of 73 to 74 °C.

As to `Cc1cccc(-c2nc(-c3ccc(F)cc3)sc2-c2ccnc(C)c2)c1` [H 14-4, 2 (4 fluorophenyl)-4 (3-methylphenyl)-5 (2 methyl-4 pyridyl)-1,3 thiazole], the melting point was 89 to 91 °C.

As to `Cc1cccc(-c2nc(-c3ccc(F)cc3F)sc2-c2ccnc(C)c2)c1` [H 14-5, 2 (2,4 difluorophenyl)-4-(3 methylphenyl)-5 (2 methyl-4 pyridyl)-1,3 thiazole], the melting point was in the range of 90 to 91 °C.

`Cc1cccc(-c2nc(-c3ccccc3)sc2-c2ccnc(C)c2)c1` [H 14-6, 4 (3 methylphenyl)-5 (2-methyl-4 pyridyl)-2 phenyl-1,3 thiazole] yielded a melting point of 79 to 80 °C.

For the compound `Cc1cccc(-c2nc(Cc3ccccc3)sc2-c2ccnc(C)c2)c1` [H 14-7, 4 (3 methylphenyl)-5 (2-methyl-4 pyridyl)-2 (phenylmethyl)-1,3 thiazole], the melting point is 82 to 84 °C.

Turning to `Cc1cccc(-c2nc(CCc3ccccc3)sc2-c2ccnc(C)c2)c1` [H 14-8, 4 (3 methylphenyl)-5 (2-methyl-4 pyridyl)-2 (2 phenylethyl)-1,3 thiazole], the melting point lay within 64 to 65 °C.

In turn, `CCOC(=O)c1nc(-c2cccc(C)c2)c(-c2ccnc(C)c2)s1` [H 14-12, ethyl [4 (3-methylphenyl)-5 (2 methyl-4 pyridyl)-1,3 thiazol-2-yl]carboxylate] came in with a melting point of 97 to 98 °C.

`Cc1cccc(-c2nc(N3CCN(C)CC3)sc2-c2ccnc(C)c2)c1` [H 14-13, 4 (3 methylphenyl)-2 (4-methylpiperazin-1 yl)-5 (2 methyl-4 pyridyl)-1,3 thiazole]: the melting point lay in the range of 115 to 116 °C.

With `CSc1ccc(-c2nc(-c3cccc(C)c3)c(-c3ccnc(F)c3)s2)cc1` [H 15, 5-(2-fluoro-4-pyridyl)-4-(3-methylphenyl)-2-[4-(methylthio)phenyl]-1,3-thiazole], the melting point fell in the range of 97 to 100 °C.

Take `Cc1cccc(-c2nc(-c3ccc(F)cc3)sc2-c2ccnc(N)c2)c1` [H 18-1, 4 [2 (4 fluorophenyl)-4-(3 methylphenyl)-1,3 thiazol-5 yl]-2 pyridylamine]: the melting point fell in the range of 160 to 162 °C.

In the case of `Cc1cccc(-c2nc(CC(F)(F)F)sc2-c2ccnc(N)c2)c1` [H 18-3, 4 [4 (3 methylphenyl)-2-(2,2,2 trifluoroethyl)-1,3 thiazol-5 yl]-2 pyridylamine], the melting point was in the range of 131 to 132 °C.

For `CCCc1nc(-c2cccc(C)c2)c(-c2ccnc(N)c2)s1` [H 18-4, 4 [4 (3 methylphenyl)-2-propyl-1,3 thiazol-5 yl]-2 pyridylamine], the melting point was in the range of 113 to 115 °C.

As for `CCOC(=O)Cc1nc(-c2cccc(C)c2)c(-c2ccnc(N)c2)s1` [H 18-5, Ethyl [5 (2 amino-4-pyridyl)-4 (3 methylphenyl)-1,3 thiazol-2 yl]acetate], the melting point fell in the range of 128 to 129 °C.

On to `CCc1nc(-c2cccc(Cl)c2)c(-c2ccnc(N)c2)s1` [H 20-1, 4 [2 ethyl-4 (3-chlorophenyl)-1,3 thiazol-5 yl]-2 pyridylamine], for which the melting point lay in the range of 131 to 132 °C.

With `CCc1nc(-c2ccccc2)c(-c2ccnc(N)c2)s1` [H 20-2, 4 (2 ethyl-4 phenyl-1,3-thiazol-5 yl)-2 pyridylamine], the melting point is 158 to 159 °C.

In the case of `CCc1nc(-c2ccc(F)cc2)c(-c2ccnc(N)c2)s1` [H 20-3, 4 [2 ethyl-4 (4-fluorophenyl)-1,3 thiazol-5 yl]-2 pyridylamine], the melting point was in the range of 140 to 141 °C.

`CCc1nc(-c2cccc(C(F)(F)F)c2)c(-c2ccnc(N)c2)s1` [H 20-4, 4 [2 ethyl-4 [3-(trifluoromethyl)phenyl]-1,3 thiazol-5 yl]-2 pyridylamine] had a melting point of 117 to 118 °C.

Compound `CCc1nc(-c2ccc(SC)cc2)c(-c2ccnc(N)c2)s1` [H 20-5, 4 [2 ethyl-4 [4-(methylthio)phenyl]-1,3 thiazol-5 yl]-2 pyridylamine] returned a melting point of 119 to 120 °C.

`CCc1nc(-c2cccc(F)c2)c(-c2ccnc(N)c2)s1` [H 20-6, 4 [2 ethyl-4 (3-fluorophenyl)-1,3 thiazol-5 yl]-2 pyridylamine] came in with a melting point of 153 to 154 °C.

`CCc1nc(-c2ccc(Cl)cc2)c(-c2ccnc(N)c2)s1` [H 20-7, 4 [4 (4 chlorophenyl)-2-ethyl-1,3 thiazol-5 yl]-2 pyridylamine] gave a melting point of 136 to 137 °C.

With `CCc1cccc(-c2nc(CC)sc2-c2ccnc(N)c2)c1` [H 20-8, 4 [2 ethyl-4 (3-ethylphenyl)-1,3 thiazol-5 yl]-2 pyridylamine], the melting point lay within 128 to 129 °C.
